The test system of one data set is UA sulfation. The data set is described as follows: Inhibition of UA sulfation (formation of UA-sulfate by HPLC-MS). Format: biochemical. Conditions: UA concentration 2 μM, triplicate. The protocol:
FIG. 5. IC50 of glycyrrhetinic acid. UA concentration was 2 μM. Determination was done in triplicate.
Table 1. IC50 values for several inhibitors of UA sulfation. UA concentration was 2 μM. Determinations were done in triplicate, and formation of UA-sulfate was determined by HPLC-MS followed by nonlinear regression with the Hill equation.

For data set [1] the following is noted: colour and water solubility with time.
For data set [2] the following is noted: background statement; cited from earlier work.
For data set [3] the following is noted: cited from earlier work.
The conditions of data set [4]: cited from earlier work. This is another data set of the same source.
The nature of data set [5]: Solubility of ursolic acid salts in hydrophilic solvents (clear saturated solution). As to the method: The salts were weighed, mixed with the solvent, and incubated to reach clear saturated solution (37° C. for water and ethanol; 55° C. for PEG 400 and glycerol).

Where two headings read alike, the source gives them in different places.

What is called IC50 is the concentration that inhibits the measured activity by half. Usually Hill slope stands for a measure of the steepness of the concentration-response curve.

Consider `CC1(C)[C@@H](O)CC[C@]2(C)[C@H]3C(=O)C=C4[C@@H]5C[C@@](C)(C(=O)O)CC[C@]5(C)CC[C@@]4(C)[C@]3(C)CC[C@@H]12` [Glycyrrhetinic acid], for which the IC50 came to 18.6 µM in the data set on UA sulfation (95% CI, read-out: IC50 (FIG. 5)) and 14 ± 0.2 µM with UA sulfation (Hill equation, read-out: IC50). This molecule came in with a Hill slope with UA sulfation (Hill equation) of 4.8 ± 3.5.
Take `C[C@H]1[C@H](C)CC[C@]2(C(=O)O)CC[C@]3(C)C(=CC[C@@H]4[C@@]5(C)CC[C@H](O)C(C)(C)[C@@H]5CC[C@]43C)[C@H]12` [UAdC-W, ursolic acid dicholine hydroxide hydrated complex]: the stability entry in data set [1] is listed as “stable”.
As for `C[C@H]1[C@H](C)CC[C@]2(C(=O)O)CC[C@]3(C)C(=CC[C@@H]4[C@@]5(C)CC[C@H](O)C(C)(C)[C@@H]5CC[C@]43C)[C@H]12` [UAdC-O, ursolic acid dicholine complex], in data set [1], the stability entry is on record as “unstable”.
`C[C@@H]1CC[C@]2(C(=O)O)CC[C@]3(C)C(=CCC4[C@@]5(C)CC[C@H](O)C(C)(C)C5CC[C@]43C)C2[C@H]1C` (some centres unmarked) [Ursolic acid]: the solubility in water result in data set [2] was “less than 1 μg/mL”. Also, the oral bioavailability entry in data set [3] is listed as “less than 1%”. Further, the “pKa of carboxylic acid” value in data set [4] is reported as 4.7.
Regarding `C[C@]12CC[C@H](O)CC1=CC[C@@H]1[C@@H]2CC[C@]2(C)C(=O)CC[C@@H]12` [DHEA, dehydroepiandrosterone], in the data set with UA sulfation (Hill equation), the Hill slope is given as 1.4 ± 0.1. Further, the IC50 in the data set on UA sulfation (Hill equation, read-out: IC50) worked out at 1.2 ± 0.1 µM.
`CC(=O)O[C@H]1CC[C@@]2(C)C(=CC(=O)[C@@H]3[C@@H]2CC[C@]2(C)C(=O)CC[C@@H]32)C1` [7-oxo-DHEA acetate] had a Hill slope in the data set with UA sulfation (Hill equation) of 1.2 ± 0.06. Also, the IC50 in the data set with UA sulfation (Hill equation, read-out: IC50) was 20.2 ± 3.6 µM.
On to `C[C@H]1[C@H](C)CC[C@]2(C(=O)[O-])CC[C@]3(C)C(=CC[C@@H]4[C@@]5(C)CC[C@H](O)C(C)(C)[C@@H]5CC[C@]43C)[C@H]12.C[N+](C)(C)CCO` [UAmC, monocholine ursolate], for which the “PEG400 solubility compared to UAK” value in data set [5] (PEG400, data not shown) is given as “lower solubility”. The “ethanol solubility, comparison” value in data set [5] (ethanol, FIG. 1B) is on record as “less than UAK”.
For the molecule `C[C@H]1CC[C@]2(NC1)O[C@H]1C[C@H]3[C@@H]4CC[C@H]5C[C@@H](O)CC[C@]5(C)[C@H]4CC[C@]3(C)[C@H]1[C@@H]2C` [Tomatidine], the Hill slope in the data set on UA sulfation (Hill equation) is 0.5 ± 0.03. Moreover, the IC50 in the data set on UA sulfation (Hill equation, read-out: IC50) amounted to 84.8 ± 5.1 µM.
In turn, `C[C@]12CC[C@H](O)CC1=CC(=O)C1C2CC[C@]2(C)C(=O)CCC12` (some centres unmarked) [7-oxo-DHEA] showed a Hill slope in the data set with UA sulfation (Hill equation) of 1.2 ± 0.4. In addition, the IC50 with UA sulfation (Hill equation, read-out: IC50) was 38.1 ± 1.2 µM.
In turn, `C=C1C[C@@]23CC[C@H]4[C@@](C)(CCC[C@@]4(C)C(=O)O)[C@@H]2CC[C@]1(O)C3` [Steviol] had a Hill slope in the data set with UA sulfation (Hill equation) of 1.4 ± 0.1. Also, the IC50 in the data set with UA sulfation (Hill equation, read-out: IC50) was determined as 11.8 ± 1.8 µM.

These data come from US12643922B2 (VIRGINIA COMMONWEALTH UNIVERSITY, priority 2021, dated 2026).
